From patent US9095599B2, “O-(substituted benzyl) phosphoramidate compounds and therapeutic use” (Nanjing Molecular Research, Inc., priority 2011, dated 2015)
Entries after “also recorded” stand apart in the source; their conditions may differ. Values belong to the compound of their own block, whether it stands above or below them.

Experiments:
[1] = Rat plasma and liver PK after iv administration; type: in vivo, SD rats
Description: Pharmacokinetic (PK) study of prodrug FDURP (DGX-102) and parent drug (FDUR) in rats was completed according to following procedure.
SD rats (250-300 g, male, N=15) were used for each compound, purchased from SLAC Laboratory Animal Co. LTD Qualification No.: SCXK (SH) 2007-0005, 13264. Compounds FDUR and FDURP were each dosed via tail vein injection. The animal was restrained manually at designated time points. Approximately 500 μL of blood/time point was collected into K2EDTA tube via cardiac puncture for terminal bleeding under anesthesia with Isoflurane. FDUR and FDURP blood samples were put on ice after collection and then centrifuged to obtain plasma sample (2000 g, 5 min, 4° C.) within 15 minutes of sampling. The blood samples were then centrifuged to obtain plasma sample (2000 g, 5 min, 4° C.). All the plasma samples were immediately quenched for protein precipitation. Liver samples of each compound were removed at designated time points by first sacrificing the animal by CO2 inhalation, then perfusing the liver with ice cold saline and removing the left middle liver lobe, which was then snap frozen in dry ice. Liver samples were stored at approximately −80° C. until analysis. The liver homogenate was then processed for further analysis by LC/MS-MS. Plasma and liver samples were stored at approximately −80° C. until analysis.
Concentrations of prodrugs, parent drug and possible metabolites in both plasma and liver including FDURMP, FDUR, FDUR-MP and 5FU were determined by LC/MS-MS.

[2] = system: HCV subgenomic replicon (genotype 1a) in Huh-7 cells; assay: HCV replicon assay (luciferase reporter); type: cell-based; settings: for EC50: Hepatitis C virus, subgenomic genotype 1a replicon, Huh-7 luc-ubi-neo, 48 h, diastereomer mixtures
Description: Anti-HCV activity and cytotoxicity of compounds disclosed herein were assayed following patent method (WO 2007/027248).
(§1) The anti-HCV activity and toxicity of the exemplary compounds can be tested in two biological assays—a cell-based HCV replicon assay and cytotoxicity assay (WO 2007/027248).
A human hepatoma cell line (Huh-7) containing replicating HCV subgenomic replicon with a luciferase reporter gene (luc-ubi-neo) was used to evaluate anti-HCV activity of the compounds. In this assay, level of luciferase signal correlates with the viral RNA replication directly. The HCV replicon-reporter cell line (NK/luc-ubi-neo) was cultured in DMEM medium supplemented with 10% fetal bovine serum and 0.5 mg/ml Geneticin (G418). Cells were maintained in a subconfluent state to ensure high levels of HCV replicon RNA synthesis.
To evaluate the antiviral activity of compounds, serial dilutions were prepared with concentrations ranging from 0.14 to 300 μM. Diluted compounds were transferred to a 96-well plate followed by the addition of replicon cells (6000 cells per well). Cells were incubated with the compounds for 48 h after which luciferase activity was measured. Reduction of luciferase signal reflected the decrease of HCV replicon RNA in the treated cells and used to determine the EC50 value (concentration which yielded a 50% reduction in luciferase activity).
(§2) The biological activities using subgenomic genotype 1a replicon and cytotoxicity of the selected compounds are summarized in Table 2.

[3] = Cytotoxicity assay (LTR-luc luciferase reporter); type: cell-based; settings: human; Huh-7 LTR-luc cells
Description: as §1
A Huh-7 cell line carrying a luciferase reporter gene (driven by a HIV LTR promoter) stably integrated into the chromosome was used to analyze the cytotoxic effect of the selected compounds. This cell line (LTR-luc) was maintained in DMEM medium with 10% FBS. Design of the cytotoxicity assay was similar to that of the HCV replicon assay. Reduction of luciferase activity in the treated cells correlated with the cytotoxic effect of the test compound and was used to calculate the CC50 value (concentration that inhibited cell growth by 50%).
as §2

- Active metabolite FDUR-MP in the liver after administration ([1]; iv): not
- liver Cmax ([1]; monitored compound 5FU, iv): BQL
- liver Cmax ([1]; monitored compound FDUR, iv): BQL
- liver Cmax ([1]; monitored compound FDUR-MP, iv): BQL
- Drug FDUR Concentration, Liver ([1]; sampling 1, iv 0.015 mmol/kg): BQL
- Drug FDUR Concentration, Liver ([1]; sampling 2, iv 0.015 mmol/kg): BQL
- Drug FDUR Concentration, Plasma ([1]; sampling 2, iv 0.015 mmol/kg): BQL
- Drug FDUR Concentration, Liver ([1]; sampling 4, iv 0.015 mmol/kg): BQL
- Drug FDUR Concentration, Plasma ([1]; sampling 4, iv 0.015 mmol/kg): BQL
- Drug FDUR Concentration, Liver ([1]; sampling 8, iv 0.015 mmol/kg): BQL
- Drug FDUR Concentration, Plasma ([1]; sampling 8, iv 0.015 mmol/kg): BQL
- Drug FDUR Concentration, Liver ([1]; sampling 24, iv 0.015 mmol/kg): BQL
- Drug FDUR Concentration, Plasma ([1]; sampling 24, iv 0.015 mmol/kg): BQL
Structure (SMILES): O=c1[nH]c(=O)n([C@H]2C[C@H](O)[C@@H](CO)O2)cc1F [FDUR, 5-fluoro-2′-deoxyuridine, reference compound]

Structure (SMILES): COc1nc(N)nc2c1ncn2C1OC(CO)C(O)C1(C)O (centres unmarked) [DGX-110]
- anti-HCV activity (in words) [2]: biologically active
- EC50 [2]: 0.9 µM
- CC50 [3]: > 100 µM

Structure (SMILES): CC1(F)C(O)C(COP(=O)(NCc2ccccc2)OCc2ccccc2)OC1n1ccc(=O)[nH]c1=O (centres unmarked) [DGX-106]
- anti-HCV activity (in words) [2]: did not show any anti-HCV activity
- EC50 [2]: > 100 µM
- CC50 [3]: > 100 µM

Structure (SMILES): Cc1ccccc1COP(=O)(NCc1ccccc1)OCC1OC(n2ccc(=O)[nH]c2=O)C(C)(F)C1O (centres unmarked) [DGX-105]
- anti-HCV activity (in words) [2]: biologically potent; also recorded: potent anti-HCV activity
- EC50 [2]: 1.9 µM
- CC50 [3]: > 100 µM

Structure (SMILES): COc1nc(N)nc2c1ncn2C1OC(COP(=O)(NCc2ccccc2)OCc2ccccc2C)C(O)C1(C)O (centres unmarked) [DGX-111]
- anti-HCV activity (in words) [2]: biologically much more potent
- EC50 [2]: 0.3 µM
- CC50 [3]: 69 µM

Structure (SMILES): CC1(F)C(O)C(CO)OC1n1ccc(=O)[nH]c1=O (centres unmarked) [DGX-103]
- anti-HCV activity (in words) [2]: biologically inactive
- EC50 [2]: > 100 µM
- CC50 [3]: > 100 µM

- Active metabolite FDUR-MP in the liver after administration ([1]; iv): detected in the liver
- Concentrations of related active drugs (FDUR, FDUR-MP, 5FU) compared with administration of FDUR ([1]; iv): significantly increased
- Exposure in plasma and liver compared with parent drug FDUR ([1]; iv): significantly greater
- Tmax ([1]; male, Sprague-Dawley, liver, 0.015 mmol/kg, monitored compound FDURP, iv): 60 min
- AUC(0-inf) ([1]; male, Sprague-Dawley, plasma, 0.015 mmol/kg, monitored compound FDURP, iv): 10.4 µg·h/mL
- half-life ([1]; male, Sprague-Dawley, plasma, 0.015 mmol/kg, monitored compound FDURP, iv, printed in Tmax column, read-out: plasma T½ (converted)): 27 min
- liver AUC(inf) ([1]; monitored compound FDURP, iv): 1.75 µg·h/mL
- liver Cmax ([1]; monitored compound FDURP, iv): 1.573 µg/mL
- Drug FDUR Concentration, Liver ([1]; sampling 1, iv 0.015 mmol/kg): BQL
- Drug FDUR Concentration, Liver ([1]; sampling 2, iv 0.015 mmol/kg): BQL
- Drug FDUR Concentration, Plasma ([1]; sampling 4, iv 0.015 mmol/kg): BQL
- Drug FDUR Concentration, Plasma ([1]; sampling 8, iv 0.015 mmol/kg): BQL
- Drug FDUR Concentration, Plasma ([1]; sampling 24, iv 0.015 mmol/kg): BQL
Structure (SMILES): Cc1ccccc1COP(=O)(NCc1ccccc1)OCC1OC(n2cc(F)c(=O)[nH]c2=O)CC1O (centres unmarked) [FDURP]

Structure (SMILES): COc1ccc(COP(=O)(NCc2ccccc2)OCC2OC(n3ccc(=O)[nH]c3=O)C(C)(F)C2O)cc1F (centres unmarked) [DGX-104]
- anti-HCV activity (in words) [2]: biologically potent; also recorded: potent anti-HCV activity
- EC50 [2]: 4.1 µM
- CC50 [3]: > 100 µM
